Experiments:
[1] = biological target: hSERT (serotonin transporter) (Homo sapiens, UniProt P31645); test: in vitro binding affinity
dopamine D4 receptor = dopamine D4 receptor (Homo sapiens, UniProt P21917); test: Ki, apparently from the radioligand screening panel
[2] = biological target: hDAT (dopamine transporter) (Homo sapiens, UniProt Q01959); test: in vitro binding affinity
[3] = biological target: hNET (norepinephrine transporter) (Homo sapiens, UniProt P23975); test: in vitro binding affinity
Sequence of hNET (norepinephrine transporter) (P23975 whole entry): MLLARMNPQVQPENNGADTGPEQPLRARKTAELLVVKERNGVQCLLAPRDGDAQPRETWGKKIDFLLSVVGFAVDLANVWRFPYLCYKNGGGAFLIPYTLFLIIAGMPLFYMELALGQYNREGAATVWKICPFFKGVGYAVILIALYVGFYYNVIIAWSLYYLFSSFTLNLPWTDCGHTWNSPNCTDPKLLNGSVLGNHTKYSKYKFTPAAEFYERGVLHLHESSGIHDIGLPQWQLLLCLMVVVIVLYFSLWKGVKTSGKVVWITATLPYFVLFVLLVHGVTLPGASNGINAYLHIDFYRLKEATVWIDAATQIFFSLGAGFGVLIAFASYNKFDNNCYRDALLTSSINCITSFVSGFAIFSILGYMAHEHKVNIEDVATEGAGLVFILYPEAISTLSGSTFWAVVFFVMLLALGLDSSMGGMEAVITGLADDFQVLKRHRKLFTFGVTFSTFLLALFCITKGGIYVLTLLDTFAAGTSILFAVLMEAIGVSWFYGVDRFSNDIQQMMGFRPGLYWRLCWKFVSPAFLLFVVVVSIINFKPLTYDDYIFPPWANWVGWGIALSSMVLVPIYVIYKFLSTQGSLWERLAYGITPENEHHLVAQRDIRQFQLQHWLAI

Sequence of hSERT (serotonin transporter) (P31645 whole entry): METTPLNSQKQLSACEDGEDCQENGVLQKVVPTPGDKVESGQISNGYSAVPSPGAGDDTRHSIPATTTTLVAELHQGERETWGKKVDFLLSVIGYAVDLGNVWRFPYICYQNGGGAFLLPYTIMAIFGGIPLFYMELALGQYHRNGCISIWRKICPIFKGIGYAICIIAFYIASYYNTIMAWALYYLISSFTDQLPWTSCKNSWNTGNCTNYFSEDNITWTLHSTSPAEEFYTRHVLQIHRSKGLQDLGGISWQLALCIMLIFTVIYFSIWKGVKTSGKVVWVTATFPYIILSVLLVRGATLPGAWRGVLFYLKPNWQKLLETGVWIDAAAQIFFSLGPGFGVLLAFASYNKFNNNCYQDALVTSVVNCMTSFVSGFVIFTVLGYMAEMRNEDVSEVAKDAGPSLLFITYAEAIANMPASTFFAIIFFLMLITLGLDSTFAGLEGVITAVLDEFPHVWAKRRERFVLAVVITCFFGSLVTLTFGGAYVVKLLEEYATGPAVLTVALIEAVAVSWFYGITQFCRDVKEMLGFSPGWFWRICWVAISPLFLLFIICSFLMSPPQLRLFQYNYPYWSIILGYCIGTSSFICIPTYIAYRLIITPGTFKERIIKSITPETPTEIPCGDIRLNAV
Sequence of hDAT (dopamine transporter) (Q01959 whole entry): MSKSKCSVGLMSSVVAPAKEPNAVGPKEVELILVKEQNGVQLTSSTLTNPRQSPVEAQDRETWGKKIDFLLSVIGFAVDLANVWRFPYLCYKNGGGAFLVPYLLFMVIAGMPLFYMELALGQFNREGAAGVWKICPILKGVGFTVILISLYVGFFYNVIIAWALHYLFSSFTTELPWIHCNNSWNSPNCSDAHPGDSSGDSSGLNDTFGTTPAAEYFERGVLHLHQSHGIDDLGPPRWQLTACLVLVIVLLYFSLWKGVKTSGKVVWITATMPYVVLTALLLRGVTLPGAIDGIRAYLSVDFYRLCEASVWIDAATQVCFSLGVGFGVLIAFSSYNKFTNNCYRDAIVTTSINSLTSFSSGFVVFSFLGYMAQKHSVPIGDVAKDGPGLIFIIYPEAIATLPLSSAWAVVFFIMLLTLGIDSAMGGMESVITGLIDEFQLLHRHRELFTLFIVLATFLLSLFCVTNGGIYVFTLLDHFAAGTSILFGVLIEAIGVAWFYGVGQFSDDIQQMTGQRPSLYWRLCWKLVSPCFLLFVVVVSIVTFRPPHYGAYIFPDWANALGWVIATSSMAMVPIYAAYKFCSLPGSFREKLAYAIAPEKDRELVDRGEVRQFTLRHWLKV
Sequence of dopamine D4 receptor (P21917 whole entry): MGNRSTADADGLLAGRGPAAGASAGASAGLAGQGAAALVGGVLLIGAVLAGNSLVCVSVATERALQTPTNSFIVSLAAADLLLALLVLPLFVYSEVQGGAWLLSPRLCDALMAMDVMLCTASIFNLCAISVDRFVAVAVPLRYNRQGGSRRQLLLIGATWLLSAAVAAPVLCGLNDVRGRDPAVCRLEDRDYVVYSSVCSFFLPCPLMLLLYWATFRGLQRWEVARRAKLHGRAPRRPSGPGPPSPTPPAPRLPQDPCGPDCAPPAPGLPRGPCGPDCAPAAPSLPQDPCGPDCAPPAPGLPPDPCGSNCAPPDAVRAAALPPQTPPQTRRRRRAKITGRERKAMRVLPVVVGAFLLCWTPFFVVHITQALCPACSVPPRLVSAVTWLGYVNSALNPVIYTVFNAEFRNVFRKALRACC

C[C@@H](CN1CCC(Cc2ccccc2)CC1)C(O)c1ccc(O)cc1 (stereo partly shown) [MI-4, Ro-25-6981]
Ki [1]: 670 nM
Ki (dopamine D4 receptor): 120 nM
Ki [2]: 3460 nM
Ki [3]: 365 nM

Source: article PMC9575003 (Pharmacology, biochemistry, and behavior, 2016)
